Assay results: article PMC5775428, “Towards an experimental classification system for membrane active peptides” (Scientific Reports, 2018)
Where two headings read alike, the source gives them in different places.

Experiments:
Staphylococcus aureus = details: Staphylococcus aureus; for Minimum inhibitory concentration, Average: average of triplicates
Description: (§1) Antimicrobial activity was tested against three categories of human and plant pathogenic microorganisms: Gram-positive (Bacillus subtilis, Bacillus cereus, Staphylococcus aureus), Gram-negative (Escherichia coli, Pseudomonas aeruginosa, Erwinia carotovora, Pseudomonas syringae pv. tabaci, Xanthomonas campestris pv. citri) and yeasts (Candida albicans, Cryptococcus neoformans), as previously reported. […] The full list of peptide MICs was published in an accompanying paper, and is available in the current publication as supplementary dataset (Supplementary dataset 01).
(§2) The determination of the minimum inhibitory concentration (MIC) of peptides was performed as described in “Encrypted Antimicrobial Peptides from Plant Proteins”[7]. Briefly, MICs were determined following protocols M7-A10 and M27-A3 from Clinical & Laboratory Standards Institute (CLSI) for bacteria and yeasts, respectively. Different concentrations of IAPs (0.5 to 256 μM) were tested against several microorganisms in a final volume of 100 µL. Three biological repetitions, with 2 technical replicates each, were performed for each test, on polystyrene flat-bottom 96 wells microplates. The minimum inhibitory concentration (MIC) was defined as the concentration at which no cells were detected when visualized by optical microscopy. Please refer to the literature[7] for further details of the microbiological assays.

Cryptococcus neoformans = details: Cryptococcus neoformans; for Minimum inhibitory concentration, Average: average of triplicates
Description: as §1, §2

Erwinia carotovora = details: Erwinia carotovora; for Minimum inhibitory concentration, Average: average of triplicates
Description: as §1, §2

Escherichia coli = details: Escherichia coli; for Minimum inhibitory concentration, Average: average of triplicates
Description: as §1, §2

[1] = test system: Pseudomonas syringae pv. tabaci; details: Pseudomonas syringae pv. tabaci; for Minimum inhibitory concentration, Average: average of triplicates
Description: as §1, §2

Xanthomonas campestris = details: for Minimum inhibitory concentration, Average: average of triplicates
Description: as §1, §2

Pseudomonas aeruginosa = details: Pseudomonas aeruginosa; for Minimum inhibitory concentration, Average: average of triplicates
Description: as §1, §2

Candida albicans = details: Candida albicans; for Minimum inhibitory concentration, Average: average of triplicates
Description: as §1, §2

Bacillus subtilis = details: Bacillus subtilis; for Minimum inhibitory concentration, Average: average of triplicates
Description: as §1, §2

Bacillus cereus = details: Bacillus cereus; for Minimum inhibitory concentration, Average: average of triplicates
Description: as §1, §2

[2] = CLSI M27-A3, 0.5 to 256 μM tested, triplicate 1, also published in ref 7

Sequence | Minimum inhibitory concentration (Staphylococcus aureus; CLSI M7-A10, triplicate 1) [µM] | Minimum inhibitory concentration, Average (Staphylococcus aureus) [µM] | Minimum inhibitory concentration (Staphylococcus aureus; triplicate 2) [µM] | Minimum inhibitory concentration (Staphylococcus aureus; triplicate 3) [µM] | Minimum inhibitory concentration (Cryptococcus neoformans; CLSI M27-A3, triplicate 1) [µM] | Minimum inhibitory concentration, Average (Cryptococcus neoformans) [µM] | Minimum inhibitory concentration (Cryptococcus neoformans; triplicate 2) [µM] | Minimum inhibitory concentration (Cryptococcus neoformans; triplicate 3) [µM] | Minimum inhibitory concentration (Escherichia coli; CLSI M7-A10, triplicate 1) [µM] | Minimum inhibitory concentration, Average (Escherichia coli) [µM] | Minimum inhibitory concentration (Escherichia coli; triplicate 2) [µM] | Minimum inhibitory concentration (Escherichia coli; triplicate 3) [µM] | Minimum inhibitory concentration (Pseudomonas aeruginosa; CLSI M7-A10, triplicate 1) [µM] | Minimum inhibitory concentration, Average (Pseudomonas aeruginosa) [µM] | Minimum inhibitory concentration (Pseudomonas aeruginosa; triplicate 2) [µM] | Minimum inhibitory concentration (Pseudomonas aeruginosa; triplicate 3) [µM] | Minimum inhibitory concentration (Candida albicans; [2]) [µM] | Minimum inhibitory concentration, Average (Candida albicans) [µM] | Minimum inhibitory concentration (Candida albicans; triplicate 2) [µM] | Minimum inhibitory concentration (Candida albicans; triplicate 3) [µM] | other results
GKILKYLLYLLRKYANLIIR [Tc02] | 8 | 8.0 | 8 | 8 | 1 | 1.0 | 1 | 1 | 8 | 10.7 | 8 | 16 | 16 | 16.0 | 16 | 16 | 1 | 1.0 | 1 | 1 | Minimum inhibitory concentration (Erwinia carotovora; CLSI M7-A10, triplicate 1): 16 µM; Minimum inhibitory concentration, Average (Erwinia carotovora): 16.0 µM; Minimum inhibitory concentration (Erwinia carotovora; triplicate 2): 16 µM; Minimum inhibitory concentration (Erwinia carotovora; triplicate 3): 16 µM; Minimum inhibitory concentration ([1]; CLSI M7-A10, triplicate 1): 4 µM; Minimum inhibitory concentration, Average [1]: 4.0 µM; Minimum inhibitory concentration ([1]; triplicate 2): 4 µM; Minimum inhibitory concentration ([1]; triplicate 3): 4 µM; Minimum inhibitory concentration (Xanthomonas campestris; CLSI M7-A10, triplicate 1): 16 µM; Minimum inhibitory concentration, Average (Xanthomonas campestris): 16.0 µM; Minimum inhibitory concentration (Xanthomonas campestris; triplicate 2): 16 µM; Minimum inhibitory concentration (Xanthomonas campestris; triplicate 3): 16 µM; Minimum inhibitory concentration (Bacillus subtilis; CLSI M7-A10, triplicate 1): 4 µM; Minimum inhibitory concentration, Average (Bacillus subtilis): 4.0 µM; Minimum inhibitory concentration (Bacillus subtilis; triplicate 2): 4 µM; Minimum inhibitory concentration (Bacillus subtilis; triplicate 3): 4 µM; Minimum inhibitory concentration (Bacillus cereus; CLSI M7-A10, triplicate 1): 16 µM; Minimum inhibitory concentration, Average (Bacillus cereus): 13.3 µM; Minimum inhibitory concentration (Bacillus cereus; triplicate 2): 16 µM; Minimum inhibitory concentration (Bacillus cereus; triplicate 3): 8 µM
GFKDLLKGAAKALVKTVLF [Asc-8, Ascaphin 8, reference compound] | 2 | 2.0 | 2 | 2 | 4 | 4.0 | 4 | 4 | 2 | 2.0 | 2 | 2 | 4 | 4.0 | 4 | 4 | 8 | 8.0 | 8 | 8 | Minimum inhibitory concentration (Erwinia carotovora; CLSI M7-A10, triplicate 1): 2 µM; Minimum inhibitory concentration, Average (Erwinia carotovora): 3.3 µM; Minimum inhibitory concentration (Erwinia carotovora; triplicate 2): 4 µM; Minimum inhibitory concentration (Erwinia carotovora; triplicate 3): 4 µM; Minimum inhibitory concentration ([1]; CLSI M7-A10, triplicate 1): 2 µM; Minimum inhibitory concentration, Average [1]: 2.0 µM; Minimum inhibitory concentration ([1]; triplicate 2): 2 µM; Minimum inhibitory concentration ([1]; triplicate 3): 2 µM; Minimum inhibitory concentration (Xanthomonas campestris; CLSI M7-A10, triplicate 1): 2 µM; Minimum inhibitory concentration, Average (Xanthomonas campestris): 2.0 µM; Minimum inhibitory concentration (Xanthomonas campestris; triplicate 2): 2 µM; Minimum inhibitory concentration (Xanthomonas campestris; triplicate 3): 2 µM; Minimum inhibitory concentration (Bacillus subtilis; CLSI M7-A10, triplicate 1): 1 µM; Minimum inhibitory concentration, Average (Bacillus subtilis): 1.0 µM; Minimum inhibitory concentration (Bacillus subtilis; triplicate 2): 1 µM; Minimum inhibitory concentration (Bacillus subtilis; triplicate 3): 1 µM; Minimum inhibitory concentration (Bacillus cereus; CLSI M7-A10, triplicate 1): 4 µM; Minimum inhibitory concentration, Average (Bacillus cereus): 4.0 µM; Minimum inhibitory concentration (Bacillus cereus; triplicate 2): 4 µM; Minimum inhibitory concentration (Bacillus cereus; triplicate 3): 4 µM
FLSLIPHAINAVSTLVHHF [PS-2, reference compound] | 8 | 8.0 | 8 | 8 |  |  |  |  | 8 | 8.0 | 8 | 8 | 512 | 512.0 | 512 | 512 | 32 | 32.0 | 32 | 32 | 
GIGKFLHSAKKFGKAFVGEIMNS [Mag-2a, Magainin-2a, reference compound] | 512 | 512.0 | 512 | 512 |  |  |  |  | 8 | 8.0 | 8 | 8 | 512 | 512.0 | 512 | 512 | 64 | 64.0 | 64 | 64 | 
GLKDMIKNLAKEAAVKLAGAVINKFSPQPQ [Nat-1, Nattererin-1, reference compound] | 16 | 26.7 | 32 | 32 |  |  |  |  | 8 | 8.0 | 8 | 8 | 32 | 32.0 | 32 | 32 | 16 | 16.0 | 16 | 16 | 
GIGDILKNLAKAAGKAALHAVGESL [HSP-4, Hylaseptin-4, reference compound] | 8 | 8.0 | 8 | 8 |  |  |  |  | 8 | 8.0 | 8 | 8 | 16 | 16.0 | 16 | 16 | 8 | 8.0 | 8 | 8 | 
